Experimental data taken from patent US10676468B2, “N-(3-heteroarylaryl)-4-arylarylcarboxamides and analogs as hedgehog pathway inhibitors and use thereof” (IMPACT Therapeutics, Inc., priority 2012, dated 2020).

How the values were obtained:
Assay type in all cases: cell-based, mouse
[1] = test system: Hedgehog Signaling Pathway; assay: SAG-induced differentiation of C3H10T1/2 cells into osteoblastic cells, intracellular alkaline phosphatase activity; settings: Mus musculus, C3H 10T1/2, 120 h, 1 μM SAG, 5 days, alkaline phosphatase activity (OD405), read-out: IC50 values of compounds that inhibit Hh pathway
Procedure, shortened: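 Mouse C3H10T1/2 cells were induced with SAG and exposed to compound (10 μM to 1 nM) for 5 days at 37 °C. Cells were lysed in 0.2% Triton, and alkaline phosphatase activity was read as OD405 over 30 min at 37 °C in pH 9.8 substrate buffer. IC50 came from a non-linear fit of background-subtracted OD405 against log concentration.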

[2] = test system: Hedgehog Signaling Pathway; assay: SHH-induced differentiation of C3H10T1/2 cells into osteoblastic cells, intracellular alkaline phosphatase activity; settings: Mus musculus, C3H 10T1/2, 120 h, 10 nM SHH-N, 5 days, alkaline phosphatase activity (OD405), read-out: IC50 values of compounds that inhibit Hh pathway
Procedure, shortened: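 Mouse C3H10T1/2 cells were induced with 10 nM SHH-N alongside test compound (10 μM–10 nM) for 5 days at 37 °C. Cells were lysed in 0.2% Triton, and alkaline phosphatase activity was read at OD405 over 30 min at 37 °C with the background reading subtracted. IC50 came from a nonlinear fit against log concentration.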

[3] = test system: Hedgehog Signaling Pathway; assay: Gli-Luc reporter gene cell assay in C3H10T1/2/Gli-Luc cells stimulated with Shh; settings: Mus musculus, C3H 10T1/2, 24 h, 30 nM Shh, luciferase activity (RLU), read-out: IC50 values of compounds that inhibit Hh pathway
Procedure, shortened: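 C3H10T1/2 cells stably carrying Gli-responsive luciferase were seeded overnight, then treated 24 h at 37 °C with compound (7-point dilution series, DMSO control) plus Shh (30 nM in added medium). Lysate luciferase RLU fitted against log concentration to derive IC50.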

IC50 [1] [nM]	IC50 [2] [nM]	IC50 [3] [nM]	SMILES
280	34	8.7	C[C@@H]1CN(c2ccc(C(=O)Nc3ccc(Cl)c(-c4ncc(-c5nccs5)[nH]4)c3)c(Cl)c2)C[C@H](C)N1C [Example 153, N-(3-(5-(thiazol-2-yl)-1H-imidazol-2-yl)-4-chlorophenyl)-2-chloro-4-((3S,5R)-3,4,5-trimethylpiperazin-1-yl)benzamide]
178	22	6.7	Cc1cc(N2C[C@@H](C)N(C)[C@@H](C)C2)ccc1C(=O)Nc1ccc(Cl)c(-c2ncc(-c3nccs3)[nH]2)c1 [Example 154, N-(3-(5-(thiazol-2-yl)-1H-imidazol-2-yl)-4-chlorophenyl)-2-methyl-4-((3S,5R)-3,4,5-trimethylpiperazin-1-yl)benzamide]
13	0.11	0.22	C[C@@H]1CN(c2ccc(C(=O)Nc3ccc(Cl)c(-c4ncc(-c5cccs5)[nH]4)c3)c(C(F)(F)F)c2)C[C@H](C)N1C [Example 155, N-(3-(5-(thiophen-2-yl)-1H-imidazol-2-yl)-4-chlorophenyl)-2-(trifluoro-methyl)-4-((3S,5R)-3,4,5-trimethylpiperazin-1-yl)benzamide]
7	0.2	0.21	Cc1c(C(=O)Nc2ccc(Cl)c(-c3ncc(-c4cccs4)[nH]3)c2)ccc(N2C[C@@H](C)N(C)[C@@H](C)C2)c1F [Example 156, N-(3-(5-(thiophen-2-yl)-1H-imidazol-2-yl)-4-chlorophenyl)-2-methyl-3-fluoro-4-((3S,5R)-3,4,5-trimethylpiperazin-1-yl)benzamide]
10	0.15	0.23	C[C@@H]1CN(c2cc(Cl)c(C(=O)Nc3ccc(Cl)c(-c4ncc(-c5cccs5)[nH]4)c3)cc2F)C[C@H](C)N1C [Example 157, N-(3-(5-(thiophen-2-yl)-1H-imidazol-2-yl)-4-chlorophenyl)-2-chloro-5-fluoro-4-((3S,5R)-3,4,5-trimethylpiperazin-1-yl)benzamide]
8.2	0.42	0.3	CCN1[C@H](C)CN(c2ccc(C(=O)Nc3ccc(Cl)c(-c4ncc(-c5cccs5)[nH]4)c3)c(Cl)c2)C[C@@H]1C [Example 158, N-(3-(5-(thiophen-2-yl)-1H-imidazol-2-yl)-4-chlorophenyl)-2-chloro-4-((3S,5R)-4-ethyl-3,5-dimethylpiperazin-1-yl)benzamide]
10	0.36	0.31	CC(C)N1[C@H](C)CN(c2ccc(C(=O)Nc3ccc(Cl)c(-c4ncc(-c5cccs5)[nH]4)c3)c(Cl)c2)C[C@@H]1C [Example 159, N-(3-(5-(thiophen-2-yl)-1H-imidazol-2-yl)-4-chlorophenyl)-2-chloro-4-((3S,5R)-4-isopropyl-3,5-dimethylpiperazin-1-yl)benzamide]
66	> 10000	6.5	CS(=O)(=O)c1ccc(C(=O)Nc2ccc(Cl)c(-c3ncc(-c4cccs4)[nH]3)c2)c(Cl)c1 [Example 160, N-(3-(5-(thiophen-2-yl)-1H-imidazol-2-yl)-4-chlorophenyl)-2-chloro-4-(methylsulfonyl)benzamide]
347	47	11	Cc1cc(N2C[C@@H](C)N(C)[C@@H](C)C2)ccc1C(=O)Nc1ccc(Cl)c(-c2ncc[nH]2)c1 [Example 166, N-(3-(1H-imidazol-2-yl)-4-chlorophenyl)-2-methyl-4-((3S,5R)-3,4,5-trimethylpiperazin-1-yl)benzamide]
30	0.22	0.22	Cc1cc(N2C[C@@H](C)N(C)[C@@H](C)C2)ccc1C(=O)Nc1ccc(Cl)c(-c2ncc(C(C)C)[nH]2)c1 [Example 170, N-(3-(5-isopropyl-1H-imidazol-2-yl)-4-chlorophenyl)-2-methyl-4-((3S,5R)-3,4,5-trimethylpiperazin-1-yl)benzamide]
